Format in all cases: cell-based, mouse
The test system of experiment [1] is α7 integrin (LacZ reporter in α7βgal+/− myoblasts). Briefly: Myoblast α7+/LacZ integrin FDG assay (Burkin assay in myoblasts, 96-well). The conditions noted are these: for Burkin Assay in Myoblasts, signal relative to DMSO: α7+/LacZ myoblasts, 96-well.
The test system of experiment [2] is α7 integrin (LacZ reporter in α7+/LacZ myotubes). Briefly: Myotube α7 integrin FDG assay (Burkin assay in myotubes, 96-well). The conditions noted are these: for Burkin Assay in Myotubes, value relative to DMSO: SU9516 analogs, 96-well, N=3-6.
Experiment [3] concerns β-galactosidase in CMV-LacZ C2C12 myoblasts. Briefly: CMV-LacZ secondary screen in C2C12 myoblasts (β-Gal stabilizing assay). Conditions: for CMV-LACZ in Myoblasts (β-galactosidase activity relative to DMSO): CMV-LacZ C2C12 myoblasts; for CMV-LACZ in Myoblasts, value relative to DMSO: SU9516 analogs, C2C12 CMV-LacZ, N=2. In outline:
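A secondary screen identifies compounds that stabilize β-gal independently of the native promoter, using CMV-LacZ C2C12 cells. Curves span 0.5–40 μM at six levels, in duplicate.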

Experiment [4] has as its system β-galactosidase in CMV-LacZ C2C12 myotubes. Description: CMV-LacZ secondary screen in C2C12 myotubes (β-Gal stabilizing assay). Conditions: for CMV-LACZ in Myotubes, signal relative to DMSO: C2C12 CMV-LacZ myotubes, fold relative to DMSO; for CMV-LACZ in Myotubes, value relative to DMSO: SU9516 analogs, C2C12 CMV-LacZ, N=2. In a few lines:
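Dose-response runs at 0.5–40 μM (0.5, 1, 5, 10, 20, 40 μM; N=2 per point) used a clonal C2C12 line carrying CMV-LacZ. Cells were assayed as myoblasts or as differentiated myotubes, and β-galactosidase levels were read with the FDG fluorogenic substrate.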

Where [5] appears, read: Mus musculus, Myoblast, 48 h, read-out: Burkin Assay in Myoblasts, value relative to DMSO.

For `CC(=O)Nc1ccc(-n2c(C)nc(=O)c(-c3ccccc3)c2C)cc1` [MLS000078709-01], the “Burkin Assay in Myoblasts, signal relative to DMSO” value in experiment [1] (0.5 uM) was found to be 1.063; in experiment [1] (1 uM), 0.996; in experiment [1] (5 uM) it was 0.8157; in experiment [1] (10 uM), 0.8052; in experiment [1] (20 uM), 0.5171; in experiment [1] (40 uM) it was 0.2616. In addition, the “Burkin Assay in Myotubes, α7 integrin LacZ reporter signal relative to DMSO” value in experiment [2] (0.5 uM) came out at 0.8374; in experiment [2] (1 uM), 0.8236; in experiment [2] (5 uM), 0.9535; in experiment [2] (10 uM), 0.9899; in experiment [2] (20 uM), 0.6311; in experiment [2] (40 uM), 0.4894. The “CMV-LACZ in Myoblasts (β-galactosidase activity relative to DMSO)” value in experiment [3] (0.5 uM) is 0.8167; in experiment [3] (1 uM), 0.7008; in experiment [3] (5 uM), 0.9270; in experiment [3] (10 uM), 1.0163; in experiment [3] (20 uM) it was 0.6919; in experiment [3] (40 uM) it was 0.4830. Also, the “CMV-LACZ in Myotubes, signal relative to DMSO” value in experiment [4] (0.5 uM) came out at 1.0133; in experiment [4] (1 uM) it was 0.9257; in experiment [4] (5 uM) it was 0.9348; in experiment [4] (10 uM), 0.8743; in experiment [4] (20 uM) it was 1.0853; in experiment [4] (40 uM), 1.7737.
In the case of `COc1ccccc1/C=C1\C(=O)Nc2ccccc21` [MLS001202634-01], in experiment [1] (setting [5]), the fold induction at 0.5 µM came out at 1.21. In experiment [1] (setting [5]), the fold induction at 1 µM was determined as 1.1. Besides, the fold induction at 5 µM in experiment [1] (setting [5]) stood at 1.14. Also, in experiment [1] (setting [5]), the fold induction at 10 µM came to 1.31. In addition, the fold induction at 20 µM in experiment [1] (setting [5]) worked out at 0.994. In experiment [1] (setting [5]), the fold induction at 40 µM was 0.931. Moreover, the “Burkin Assay in Myotubes, value relative to DMSO” value is 0.9928 in experiment [2] (0.5 uM); 1.1156 in experiment [2] (1 uM); 0.9675 in experiment [2] (5 uM); 1.139 in experiment [2] (10 uM); 0.9473 in experiment [2] (20 uM); 1.289 in experiment [2] (40 uM). Further, the “CMV-LACZ in Myoblasts, value relative to DMSO” value in experiment [3] (0.5 uM) is 1.0500; in experiment [3] (1 uM), 1.0071; in experiment [3] (5 uM), 1.1287; in experiment [3] (10 uM), 1.0990; in experiment [3] (20 uM), 1.0817; in experiment [3] (40 uM), 0.9217. Moreover, the “CMV-LACZ in Myotubes, value relative to DMSO” value in experiment [4] (0.5 uM) was 0.9582; in experiment [4] (1 uM), 1.0073; in experiment [4] (5 uM) it was 1.2348; in experiment [4] (10 uM) it was 0.9661; in experiment [4] (20 uM), 0.9750; in experiment [4] (40 uM) it was 0.9340.
Consider `CC(C)(C)c1ccc(C(=O)OCC(=O)Nc2sc3c(c2C#N)CCC3)cc1` [MLS000392555-01], for which the “Burkin Assay in Myoblasts, signal relative to DMSO” value in experiment [1] (0.5 uM) is listed as 1.2055; in experiment [1] (1 uM) it was 1.101; in experiment [1] (5 uM), 1.3; in experiment [1] (10 uM), 0.9734; in experiment [1] (20 uM) it was 1.314; in experiment [1] (40 uM), 1.226. The “Burkin Assay in Myotubes, α7 integrin LacZ reporter signal relative to DMSO” value in experiment [2] (0.5 uM) is 0.9647; in experiment [2] (1 uM) it was 0.9664; in experiment [2] (5 uM), 1.105; in experiment [2] (10 uM) it was 0.9741; in experiment [2] (20 uM) it was 0.935; in experiment [2] (40 uM) it was 0.9301. In addition, the “CMV-LACZ in Myoblasts (β-galactosidase activity relative to DMSO)” value in experiment [3] (0.5 uM) came out at 0.8954; in experiment [3] (1 uM), 0.7638; in experiment [3] (5 uM), 0.9342; in experiment [3] (10 uM) it was 0.9799; in experiment [3] (20 uM) it was 0.9559; in experiment [3] (40 uM) it was 1.2007. The “CMV-LACZ in Myotubes, signal relative to DMSO” value stood at 1.0257 in experiment [4] (0.5 uM); 0.9676 in experiment [4] (1 uM); 1.0094 in experiment [4] (5 uM); 0.8568 in experiment [4] (10 uM); 1.1537 in experiment [4] (20 uM); 0.9326 in experiment [4] (40 uM).
Turning to `CC(C)Oc1cccc(C(=O)Nc2ccc(CN3CCOCC3)cc2)c1` [MLS000062431-01], the “Burkin Assay in Myoblasts, signal relative to DMSO” value in experiment [1] (0.5 uM) came out at 0.9542; in experiment [1] (1 uM), 0.9582; in experiment [1] (5 uM), 1.016; in experiment [1] (10 uM), 1.209; in experiment [1] (20 uM) it was 1.789; in experiment [1] (40 uM), 0.9038. Also, the “Burkin Assay in Myotubes, α7 integrin LacZ reporter signal relative to DMSO” value came out at 0.9571 in experiment [2] (0.5 uM); 0.8415 in experiment [2] (1 uM); 1.178 in experiment [2] (5 uM); 1.1989 in experiment [2] (10 uM); 0.7643 in experiment [2] (20 uM); 0.8841 in experiment [2] (40 uM). For the same compound, the “CMV-LACZ in Myoblasts (β-galactosidase activity relative to DMSO)” value is 0.9557 in experiment [3] (0.5 uM); 1.1631 in experiment [3] (1 uM); 0.9848 in experiment [3] (5 uM); 1.1632 in experiment [3] (10 uM); 1.0467 in experiment [3] (20 uM); 1.0993 in experiment [3] (40 uM). Further, the “CMV-LACZ in Myotubes, signal relative to DMSO” value is reported as 0.9133 in experiment [4] (0.5 uM); 0.9743 in experiment [4] (1 uM); 0.9004 in experiment [4] (5 uM); 0.9690 in experiment [4] (10 uM); 0.8812 in experiment [4] (20 uM); 1.2047 in experiment [4] (40 uM).
For `CCCC(=O)OCC(=O)c1[nH]c(C)c(C(C)=O)c1C` [MLS001007892-01], the “Burkin Assay in Myoblasts, signal relative to DMSO” value was 1.127 in experiment [1] (0.5 uM); 1.037 in experiment [1] (1 uM); 1.016 in experiment [1] (5 uM); 1.23 in experiment [1] (10 uM); 0.7225 in experiment [1] (20 uM); 0.4983 in experiment [1] (40 uM). Further, the “Burkin Assay in Myotubes, α7 integrin LacZ reporter signal relative to DMSO” value in experiment [2] (0.5 uM) was determined as 0.9046; in experiment [2] (1 uM) it was 1.013; in experiment [2] (5 uM) it was 0.9742; in experiment [2] (10 uM), 1.075; in experiment [2] (20 uM), 0.8343; in experiment [2] (40 uM) it was 0.9888. The “CMV-LACZ in Myoblasts (β-galactosidase activity relative to DMSO)” value stood at 0.9338 in experiment [3] (0.5 uM); 0.8108 in experiment [3] (1 uM); 1.0511 in experiment [3] (5 uM); 1.1495 in experiment [3] (10 uM); 0.6390 in experiment [3] (20 uM); 0.4953 in experiment [3] (40 uM). Moreover, the “CMV-LACZ in Myotubes, signal relative to DMSO” value stood at 1.1673 in experiment [4] (0.5 uM); 0.9291 in experiment [4] (1 uM); 1.0066 in experiment [4] (5 uM); 0.9543 in experiment [4] (10 uM); 1.2170 in experiment [4] (20 uM); 1.0540 in experiment [4] (40 uM).

Values taken from patent US9980943B2, “Methods of treating muscular dystrophy” (BOARD OF REGENTS OF THE NEVADA SYSTEM OF HIGHER EDUCATION, …, priority 2013, dated 2018).
